How the values were obtained:
[1] = tested on: differentially expressed genes (DEG); test: RT-PCR and Western blotting verification of differentially expressed genes; assay type: in vivo, C57BL/6J male mice; settings: verification of mRNA-seq results
Protocol: After total RNA was isolated, total complementary DNA (cDNA) was synthesized. For real-time PCR analysis, template cDNA was diluted with RNAse-free water and used at a concentration of 25 ng/μL. Then, gene expression was analyzed using a QuantitTeck SYBR Green PCR kit (QIAGEN, Germany).
Each of the reaction solutions consisted of 10 μL of SYBR Green, 2 μL of a template, and 200 μM primers. RNAse-free water was added to a final volume of 20 μL, and reacted at 94° C. for 15 seconds, and then 58° C. and 72° C. for 30 seconds. The reaction solution was reacted 40 times at 65° C. for 30 seconds at 15 seconds per cycle. In this case, by monitoring the fluorescence signal for each cycle and analyzing the resulting threshold cycle (Ct), mRNA expression between the respective experimental groups was quantitatively analyzed using a CFX96 Real-time system (Bio-Rad, USA). […]
The amount of cytoplasmic and membrane proteins was quantified according to the Bradford method. […]

aged mice = test: Fat and muscle weight; assay type: in vivo, C57BL/6J male mice

O=C(CO)[C@H](O)[C@H](O)[C@H](O)CO [DRH, D-ribo-2-hexulose]
RT-PCR analysis and Western blotting on DEG [1]: consistent with those obtained by mRNA-seq analysis
ratio of the total weight of muscle tissue to the total weight of adipose tissue (aged mice; DRH group vs NC group): significantly increased
total weight of muscle tissue (aged mice; DRH group vs NC group): no significant difference
fat weight (aged mice; DRH supplementation): reduced
